Test results as given in the supplement of paper PMC11451515.

System: P12-Ichikawa
Experiment: cell viability relative to DMSO control; higher = less cytotoxic
Details: 48 h
Method in brief: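 Cells were incubated for 48 h at 37°C before CellTiter-Glo One luminescence was read. The cells were NOMO1 or SEM (500 cells/well) or P12-Ichikawa (1000 cells/well) leukemia cells, adapted for at least four passages in each medium and seeded in 1536-well plates (5 μl). Dosing used library compounds in DMSO applied by pin over 11 threefold points, 47 μM to 0.79 nM. Viability is the per-plate percentage of DMSO wells, with cell-free wells as background.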

[1] = HPLM + 10% dialyzed FBS, 0.000781 µM
[2] = HPLM + 10% dialyzed FBS, 0.00234 µM
[3] = HPLM + 10% dialyzed FBS, 0.00702 µM
[4] = HPLM + 10% dialyzed FBS, 0.0211 µM
[5] = HPLM + 10% dialyzed FBS, 0.0632 µM
[6] = HPLM + 10% dialyzed FBS, 0.19 µM
[7] = HPLM + 10% dialyzed FBS, 0.569 µM
[8] = HPLM + 10% dialyzed FBS, 1.71 µM
[9] = HPLM + 10% dialyzed FBS, 5.12 µM
[10] = HPLM + 10% dialyzed FBS, 15.4 µM
[11] = HPLM + 10% dialyzed FBS, 46.1 µM
[12] = RPMI 5 mM glucose + 10% FBS, 0.000781 µM
[13] = RPMI 5 mM glucose + 10% FBS, 0.00234 µM
[14] = RPMI 5 mM glucose + 10% FBS, 0.00702 µM
[15] = RPMI 5 mM glucose + 10% FBS, 0.0211 µM
[16] = RPMI 5 mM glucose + 10% FBS, 0.0632 µM
[17] = RPMI 5 mM glucose + 10% FBS, 0.19 µM
[18] = RPMI 5 mM glucose + 10% FBS, 0.569 µM
[19] = RPMI 5 mM glucose + 10% FBS, 1.71 µM
[20] = RPMI 5 mM glucose + 10% FBS, 5.12 µM
[21] = RPMI 5 mM glucose + 10% FBS, 15.4 µM
[22] = RPMI 5 mM glucose + 10% FBS, 46.1 µM
[23] = RPMI 5 mM glucose + 10% dialyzed FBS, 0.000781 µM
[24] = RPMI 5 mM glucose + 10% dialyzed FBS, 0.00234 µM
[25] = RPMI 5 mM glucose + 10% dialyzed FBS, 0.00702 µM
[26] = RPMI 5 mM glucose + 10% dialyzed FBS, 0.0211 µM
[27] = RPMI 5 mM glucose + 10% dialyzed FBS, 0.0632 µM
[28] = RPMI 5 mM glucose + 10% dialyzed FBS, 0.19 µM
[29] = RPMI 5 mM glucose + 10% dialyzed FBS, 0.569 µM
[30] = RPMI 5 mM glucose + 10% dialyzed FBS, 1.71 µM
[31] = RPMI 5 mM glucose + 10% dialyzed FBS, 5.12 µM
[32] = RPMI 5 mM glucose + 10% dialyzed FBS, 15.4 µM
[33] = RPMI 5 mM glucose + 10% dialyzed FBS, 46.1 µM

Row | Structure (SMILES) | cell viability [1] [%] | cell viability [2] [%] | cell viability [3] [%] | cell viability [4] [%] | cell viability [5] [%] | cell viability [6] [%] | cell viability [7] [%] | cell viability [8] [%] | cell viability [9] [%] | cell viability [10] [%] | cell viability [11] [%] | cell viability [12] [%] | cell viability [13] [%] | cell viability [14] [%] | cell viability [15] [%] | cell viability [16] [%] | cell viability [17] [%] | cell viability [18] [%] | cell viability [19] [%] | cell viability [20] [%] | cell viability [21] [%] | cell viability [22] [%] | cell viability [23] [%] | cell viability [24] [%] | cell viability [25] [%] | cell viability [26] [%] | cell viability [27] [%] | cell viability [28] [%] | cell viability [29] [%] | cell viability [30] [%] | cell viability [31] [%] | cell viability [32] [%] | cell viability [33] [%]
1 | O=C(Nc1ccccc1)Nc1ccc(-c2ccc(C(=O)[C@@H]3CCC[C@H]3C(=O)O)cc2)cc1 | 105 | 102 | 117 | 113 | 113 | 122 | 96.7 | 105 | 90.8 | 87 | 79 | 110 | 117 | 100 | 113 | 116 | 114 | 118 | 102 | 92.8 | 73 | 86.2 | 123 | 121 | 116 | 104 | 122 | 122 | 115 | 114 | 89.6 | 83.9 | 83.1
2 | CCC(=O)N1CCN(CC1)C2=C(C=C(C=C2)N3C(=O)\C=C/C4=C3C5=CC(=CC=C5N=C4)C6=CN=C7C=CC=CC7=C6)C(F)(F)F | 89 | 102 | 99.2 | 97.1 | 82.9 | 85.3 | 81.8 | 77.3 | 73.8 | 70.9 | 77 | 84.7 | 90.8 | 84 | 75.5 | 68 | 65.3 | 62.9 | 61.3 | 59.6 | 56.5 | 49.8 | 86.4 | 98.3 | 97.6 | 80.5 | 77.2 | 71.2 | 68.4 | 57.7 | 60.8 | 48.3 | 54.4
3 | C=C1CCC2[C@](C)(CO)C(O)CC[C@]2(C)C1C/C=C1/C(=O)OCC1O (stereo partly drawn) | 122 | 124 | 122 | 114 | 121 | 117 | 104 | 103 | 106 | 114 | 115 | 115 | 112 | 118 | 106 | 114 | 110 | 108 | 109 | 107 | 98.6 | 107 | 120 | 115 | 124 | 115 | 116 | 111 | 109 | 103 | 98.7 | 110 | 106
4 | O=C1c2ccccc2-c2n[nH]c3cccc1c23 | 96.5 | 102 | 107 | 111 | 107 | 108 | 81 | 106 | 80 | 46.6 | 12.8 | 106 | 109 | 107 | 113 | 109 | 111 | 84.6 | 106 | 68.4 | 48.9 | 10.7 | 98.1 | 97.2 | 98.5 | 108 | 112 | 100 | 87.6 | 101 | 78 | 62.3 | 16.4
5 | OC[C@H]1OC(O)C[C@@H](O)[C@@H]1O (stereo partly drawn) | 122 | 124 | 114 | 118 | 121 | 120 | 115 | 119 | 121 | 118 | 107 | 119 | 122 | 124 | 115 | 134 | 119 | 131 | 131 | 120 | 116 | 112 | 107 | 125 | 119 | 117 | 116 | 116 | 119 | 123 | 124 | 122 | 110
6 | c1ccc2c(CN3CCNCC3)cccc2c1 | 111 | 112 | 113 | 108 | 113 | 112 | 109 | 116 | 118 | 111 | 35 | 106 | 104 | 102 | 112 | 111 | 107 | 112 | 111 | 112 | 110 | 26.4 | 107 | 108 | 109 | 107 | 114 | 115 | 117 | 110 | 118 | 119 | 41.1
7 | CCc1nc(N)nc(N)c1-c1ccc(Cl)cc1 | 93.6 | 97.3 | 89.5 | 98.6 | 95.5 | 89.1 | 76.1 | 56.5 | 46.2 | 33.8 | 21.9 | 91.2 | 91.9 | 88.6 | 93.4 | 107 | 97 | 98.4 | 90 | 87.3 | 68.4 | 57.1 | 82.2 | 91.3 | 89 | 96.6 | 95.3 | 90.1 | 84.3 | 85.2 | 86.5 | 48.3 | 24.4
8 | C[C@@H](Cc1cc2c(c(C(N)=O)c1)N(CCCO)CC2)NCCOc1ccccc1OCC(F)(F)F | 91.9 | 115 | 101 | 116 | 113 | 112 | 119 | 114 | 112 | 118 | 110 | 99.4 | 111 | 106 | 130 | 116 | 123 | 115 | 101 | 112 | 117 | 102 | 90.4 | 104 | 103 | 105 | 111 | 109 | 109 | 110 | 99.4 | 109 | 97.5
9 | O=C(O)c1cccnc1 | 107 | 107 | 115 | 114 | 106 | 107 | 106 | 96.1 | 68.9 | 47.1 | 35.8 | 113 | 112 | 126 | 113 | 118 | 119 | 117 | 110 | 99.7 | 55.8 | 30.9 | 110 | 112 | 106 | 108 | 108 | 102 | 105 | 98.2 | 76.5 | 33.4 | 9.03
10 | CCOc1ccccc1N/N=C1/C(=O)N(c2nc(-c3ccccc3)cs2)N=C1C | 111 | 114 | 114 | 115 | 114 | 108 | 104 | 101 | 103 | 86.4 | 67 | 115 | 108 | 108 | 121 | 116 | 120 | 112 | 106 | 114 | 98.9 | 97 | 113 | 118 | 110 | 116 | 113 | 108 | 109 | 105 | 106 | 94.6 | 94.6
11 | O=C1\C=C(OC2=C(C=CC=C12)C3=CC=CC4=C3SC5=C4C=CC=C5)\N6CCOCC6 | 119 | 125 | 127 | 129 | 137 | 130 | 130 | 131 | 129 | 132 | 121 |  |  |  |  |  |  |  |  |  |  |  |  |  |  |  |  |  |  |  |  |  | 
12 | COc1cc2c(cc1O)CCC1C2CC[C@@]2(C)C1CC[C@@H]2O (stereo partly drawn) | 116 | 120 | 118 | 89.9 | 120 | 112 | 114 | 65.1 | 31.8 | 17.9 | 15.8 |  |  |  |  |  |  |  |  |  |  |  | 120 | 125 | 115 | 114 | 126 | 120 | 115 | 96.3 | 47 | 27.8 | 26.2
